Patent publication US20080262097A1, “Formulations” (priority 2005, published 2008)
Values after ≈ are worked out from the molar mass of the structure shown. Read-outs that look alike come from different tables or passages of the source.

Columns and labels:
S. aureus ATCC 12600-U = assay: Disc diffusion assay (DDA); format: cell-based, Staphylococcus aureus; details: zone diameter, 200 μg per disc
Method: (§1) The staphylococci and enterococci were cultured and maintained on Mueller-Hinton Medium (agar and broth) at pH 7.2; they were incubated aerobically at 37° C. for 24 hours.
(§2) A sterile paper disc was impregnated with a sample of the test compound and a minimum of 30 minutes allowed for the solvents to evaporate as far as possible. The disc was then placed on an agar plate onto which the test micro-organism had been inoculated. The plate was then incubated under the conditions described above, following which it was examined visually for signs of bacterial growth. If the test compound had antimicrobial activity, a circular zone of no growth would be obtained around the disc. The diameter of this zone of “inhibition” was measured using a ProtoCOL™ automated zone sizer (Synbiosis, Cambridge, UK). In general, a greater diameter and/or area of the zone of inhibition indicates a greater antimicrobial activity in the relevant test compound, although other factors such as test compound mobility through the agar gel may also influence the result.
(§3) The area of the zone of inhibition was calculated from the measured zone diameter (D) using the formula π(D/2)^2.

S. aureus ATCC 12601 = assay: Disc diffusion assay (DDA); format: cell-based, Staphylococcus aureus; details: zone diameter, 200 μg per disc
Method: as §1, §2, §3

S. aureus ATCC 12602 = assay: Disc diffusion assay (DDA); format: cell-based, Staphylococcus aureus; details: zone diameter, 200 μg per disc
Method: as §1, §2, §3

S. aureus ATCC 12604 = assay: Disc diffusion assay (DDA); format: cell-based, Staphylococcus aureus; details: zone diameter, 200 μg per disc
Method: as §1, §2, §3

S. aureus ATCC 12605 = assay: Disc diffusion assay (DDA); format: cell-based, Staphylococcus aureus; details: zone diameter, 200 μg per disc
Method: as §1, §2, §3

S. aureus ATCC 12606 = assay: Disc diffusion assay (DDA); format: cell-based, Staphylococcus aureus; details: zone diameter, 200 μg per disc
Method: as §1, §2, §3

S. aureus ATCC 12607 = assay: Disc diffusion assay (DDA); format: cell-based, Staphylococcus aureus; details: zone diameter, 200 μg per disc
Method: as §1, §2, §3

S. aureus ATCC 25923 = assay: Disc diffusion assay (DDA); format: cell-based, Staphylococcus aureus; details: zone diameter, 200 μg per disc
Method: as §1, §2, §3

S. aureus CPHL EMRSA 17 = assay: Disc diffusion assay (DDA); format: cell-based, Staphylococcus aureus; details: zone diameter, 200 μg per disc
Method: as §1, §2, §3

[1] = tested on: S. aureus CPHL GISA HO41340156; assay: Disc diffusion assay (DDA); format: cell-based, Staphylococcus aureus; details: zone diameter, 200 μg per disc
Method: as §1, §2, §3

S. aureus CPHL VISA Mu3 = assay: Disc diffusion assay (DDA); format: cell-based, Staphylococcus aureus; details: zone diameter, 200 μg per disc
Method: as §1, §2, §3

S. aureus CPHL VISA Mu50 = assay: Disc diffusion assay (DDA); format: cell-based, Staphylococcus aureus; details: zone diameter, 200 μg per disc
Method: as §1, §2, §3

P. acnes PRP-004 = assay: MBC assay; format: cell-based, Propionibacterium acnes; details: Cutibacterium acnes, PRP004; P. acnes PRP-004 (resistance Tet)
Method: (§4) The Propionibacterium spp organisms were cultured and maintained on Wilkins-Chalgren Anaerobe Medium (agar and broth) at pH 6.0; cultures were incubated anaerobically at 37° C. for 72 hours.
(§5) This assay, normally carried out after an MIC assay, determines the minimum concentration of a compound that is lethal to the micro-organism being tested.
(§6) These samples were then individually sub-cultured on non-selective agar medium, under the incubation conditions described above. Following incubation they were examined visually for bacterial growth.

P. acnes PRP-026 = assay: MBC assay; format: cell-based, Propionibacterium acnes; details: Cutibacterium acnes, PRP026; P. acnes PRP-026 (resistance MLS)
Method: as §4, §5, §6

P. avidum ATCC 25577 = assay: MBC assay; format: cell-based; details: Cutibacterium avidum, ATCC25577
Method: as §4, §5, §6

P. granulosum NCTC 11865 = assay: MBC assay; format: cell-based; details: P. granulosum NCTC 11865 (resistance None)
Method: as §4, §5, §6

P. granulosum PRP-005 = assay: MBC assay; format: cell-based; details: P. granulosum PRP-005 (resistance MLSK)
Method: as §4, §5, §6

P. granulosum PRP-043 = assay: MBC assay; format: cell-based; details: P. granulosum PRP-043 (resistance MLS)
Method: as §4, §5, §6

P. granulosum PRP-044 [2] = assay: MBC assay; format: cell-based; details: P. granulosum PRP-044 (resistance MLS)
Method: as §4, §5, §6

P. granulosum PRP-055 = assay: MBC assay; format: cell-based; details: P. granulosum PRP-055 (resistance None)
Method: as §4, §5, §6

P. granulosum PRP-044 [3] = assay: Disc diffusion assay (DDA); format: cell-based; details: zone diameter, 200 μg per disc
Method: as §4, §2, §3

S. aureus ATCC 29213 = assay: Time-to-kill (TTK) assay; format: cell-based, Staphylococcus aureus; details: BP 125 μg/ml and/or TBHQ […]; for CFU/ml 0.5: 0.5 hours; for CFU/ml 1.0: 1 hour
Method: This quantitative assay was designed to assess the time taken for a test compound to kill a test micro-organism.
Samples from an incubated liquid culture containing the relevant test compound and micro-organism were taken at timed intervals and inoculated onto agar plates. The plates were then incubated as described above and subsequently examined visually for growth. The numbers of viable microbial colonies on the plates were counted and converted to colony-forming units per ml (cfu/ml) using the appropriate dilution factor. By way of example, a colony count of 25 colonies from an agar plate carrying 100 μl of inoculum which had been serially diluted to 10^−6 would yield a viable cell count of 25×10 (to correct to 1 ml)×106 which would be equivalent to 2.5×10^8 cfu/ml. These cfu values were then converted into log10 values and plotted graphically against time of sample removal.
At each time point, samples were assessed in triplicate; the final cfu/ml value was an average (mean) of the three readings.
An appropriate concentration of test compound(s) for use in this assay was determined based on previously conducted MIC/FIC assays.
The TTK assay can provide another measure of synergy, as combinations of compounds may interact to kill test micro-organisms more quickly than the individual compounds alone. This would be indicated by a steeper decline in viable bacterial cell counts as compared to those observed for the individual compounds alone.
TTK assays were then conducted, as described above, on samples of BP, TBHQ and a BP/TBHQ mixture, using S. aureus ATCC 29213 as the test organism. The solvents used were DMSO for the BP and ethanol for the TBHQ. The results are shown in Table 3. cfu values were measured at time 0, 0.5 hours and 1 hour.

Structure (SMILES)	DDA (S. aureus ATCC 12600-U) [mm]	DDA (S. aureus ATCC 12601) [mm]	DDA (S. aureus ATCC 12602) [mm]	DDA (S. aureus ATCC 12604) [mm]	DDA (S. aureus ATCC 12605) [mm]	DDA (S. aureus ATCC 12606) [mm]	DDA (S. aureus ATCC 12607) [mm]	DDA (S. aureus ATCC 25923) [mm]	DDA (S. aureus CPHL EMRSA 17) [mm]	DDA [1] [mm]	DDA (S. aureus CPHL VISA Mu3) [mm]	DDA (S. aureus CPHL VISA Mu50) [mm]	MBC (P. acnes PRP-004) [mg/L]	MBC (P. acnes PRP-026) [mg/L]	MBC (P. granulosum NCTC 11865) [mg/L]	MBC (P. granulosum PRP-005) [mg/L]	MBC (P. granulosum PRP-043) [mg/L]	MBC (P. granulosum PRP-044 [2]) [mg/L]	MBC (P. granulosum PRP-055) [mg/L]	DDA (P. granulosum PRP-044 [3])	further results
O=C(OOC(=O)c1ccccc1)c1ccccc1 [benzoyl peroxide]	12.20	11.68	12.73	12.52	12.20	11.68	12.31	10.86	11.74	12.16	10.90	11.64	15.6 (≈ 64.4 µM)	31.2 (≈ 129 µM)	15.6 (≈ 64.4 µM)	15.6 (≈ 64.4 µM)	62.5 (≈ 258 µM)	31.2 (≈ 129 µM)	15.6 (≈ 64.4 µM)	29.31 (±0.54) mm	MBC (P. avidum ATCC 25577): 62.5 mg/L (≈ 258 µM); Time to kill (S. aureus ATCC 29213): >1 h; CFU/ml 0.5 (S. aureus ATCC 29213): 6.20 × 10^5 CFU/ml; CFU/ml 1.0 (S. aureus ATCC 29213): 3.67 × 10^4 CFU/ml; CFU/ml t = 0 (S. aureus ATCC 29213): 7.63 × 10^5 CFU/ml
CC(C)(C)c1cc(O)ccc1O [TBHQ, t-butyl hydroquinone]	51.24	57.34	57.66	55.03	59.55	53.34	54.50	44.70	51.05	75.37	50.73	50.11	7.8 (≈ 46.9 µM)	7.8 (≈ 46.9 µM)	7.8 (≈ 46.9 µM)	62.5 (≈ 376 µM)	15.6 (≈ 93.9 µM)	31.2 (≈ 188 µM)	7.8 (≈ 46.9 µM)	10.70 (±0.65) mm	MBC (P. avidum ATCC 25577; P. avidum ATCC 25577 (resistance None), read-out: MBC): 3.9 mg/L (≈ 23.5 µM); Time to kill (S. aureus ATCC 29213): >1 h; CFU/ml 0.5 (S. aureus ATCC 29213): 7.40 × 10^5 CFU/ml; CFU/ml 1.0 (S. aureus ATCC 29213): 8.47 × 10^5 CFU/ml; CFU/ml t = 0 (S. aureus ATCC 29213): 7.63 × 10^5 CFU/ml
